Measurements from ChEMBL document CHEMBL1144428 (J Med Chem, 2005).

Biological target: T1, Prostaglandin G/H synthase 1 (Mus musculus, UniProt P22437)
T1 sequence (P22437 whole entry): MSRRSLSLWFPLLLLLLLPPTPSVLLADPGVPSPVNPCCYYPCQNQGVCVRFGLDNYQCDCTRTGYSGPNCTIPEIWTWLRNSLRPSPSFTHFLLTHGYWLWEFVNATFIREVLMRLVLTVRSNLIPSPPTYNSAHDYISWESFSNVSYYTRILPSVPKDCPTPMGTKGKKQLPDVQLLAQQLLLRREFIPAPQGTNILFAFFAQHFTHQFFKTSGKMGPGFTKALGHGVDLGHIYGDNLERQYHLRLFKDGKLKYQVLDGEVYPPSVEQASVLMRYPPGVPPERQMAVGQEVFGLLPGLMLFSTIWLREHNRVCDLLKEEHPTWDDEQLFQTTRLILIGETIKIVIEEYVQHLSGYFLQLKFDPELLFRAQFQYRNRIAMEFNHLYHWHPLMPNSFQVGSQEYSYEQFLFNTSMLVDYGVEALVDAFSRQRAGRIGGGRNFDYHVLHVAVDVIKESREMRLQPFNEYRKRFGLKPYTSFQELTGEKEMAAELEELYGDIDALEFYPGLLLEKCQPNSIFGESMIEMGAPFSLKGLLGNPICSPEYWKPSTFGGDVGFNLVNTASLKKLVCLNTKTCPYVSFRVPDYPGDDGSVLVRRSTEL
Description: In vitro inhibitory activity against Prostaglandin G/H synthase 1 in murine J774 cells

Row | Compound | IC50
1 | CCOC(=O)C(=O)c1cc(-c2ccc(S(C)(=O)=O)cc2)n(-c2ccccc2)c1C | > 100 µM
2 | Cc1ccc(-n2c(-c3ccc(S(C)(=O)=O)cc3)cc(CC(=O)O)c2C)cc1 | > 100 µM
3 | CCOC(=O)C(=O)c1cc(-c2ccc(S(C)(=O)=O)cc2)n(-c2ccc(C)cc2)c1C | > 100 µM
4 | CCOC(=O)C(=O)c1cc(-c2ccc(S(C)(=O)=O)cc2)n(-c2ccc(C(F)(F)F)cc2)c1C | > 100 µM
5 | CCOC(=O)Cc1cc(-c2ccc(S(C)(=O)=O)cc2)n(-c2ccccc2)c1C | > 100 µM
6 | Cc1c(CC(=O)O)cc(-c2ccc(S(C)(=O)=O)cc2)n1-c1ccccc1 | > 100 µM

The remaining lines, values ahead:

Row | IC50 | Compound
7 | > 100 µM | CCOC(=O)Cc1cc(-c2ccc(S(C)(=O)=O)cc2)n(-c2ccc(C(F)(F)F)cc2)c1C
8 | > 100 µM | CCOC(=O)Cc1cc(-c2ccc(S(C)(=O)=O)cc2)n(-c2ccc(C)cc2)c1C
9 | > 100 µM | Cc1c(CC(=O)O)cc(-c2ccc(S(C)(=O)=O)cc2)n1-c1ccc(C(F)(F)F)cc1
